We go through 5 compounds from patent US20240376073A1 (Hoffmann-La Roche Inc., priority 2021, published 2024).

Structures can show the parent of a compound that is named as a salt. Where two headings read alike, the source gives them in different places.

The experiment relates to Acinetobacter baumannii ATCC17961. Nature of the experiment: Antimicrobial susceptibility testing: 90% growth inhibitory concentration (IC90) determination. Type of experiment: cell-based. The settings on record: Iso-Sensitest broth, growth by OD 600 nm over 16 h, 35±2° C. In outline: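 Twofold serial dilutions (e.g. 50 to 0.097 μM final) in Iso-Sensitest broth, inoculated at ~5×10^(5) CFU/ml, incubated at 35±2° C. OD600 read every 20 min over 16 h; IC90 derived from growth inhibition during logarithmic growth.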

Where [1] appears, read: Acinetobacter baumannii, ATCC17961, 16 h, read-out: ATCC 17961 IC90, Acinetobacter baumannii ATCC17961.
Setting [2] is: Acinetobacter baumannii ATCC17961, read-out: ATCC 17961 IC90.

Regarding `COc1ccc(-c2cnc(C(=O)Nc3ccc(C(=O)N4CCN(C(=O)N5CC[N+](CCCN)(CC(=O)O)CC5)CC4)c(Cl)c3)n2C)c(F)c1F` [Example C38, 2-[1-(3-aminopropyl)-4-[4-[2-chloro-4-[[5-(2,3-difluoro-4-methoxy-phenyl)-1-methyl-imidazole-2-carbonyl]amino]benzoyl]piperazine-1-carbonyl]piperazin-1-ium-1-yl]acetic acid formate], the concentration for an effect of 90% (IC90) (usually the point of the concentration-response curve where the effect stands at 90%) under setting [1] turned out to be 730 nM. The same measure, in the same setting: the same measure for `COc1ccc(-c2cnc(C(=O)Nc3ccc(C(=O)N4CCN(C(=O)C5CC[N+](CC(=O)O)(CC6CNC6)CC5)CC4)c(Cl)c3)n2C)c(Cl)c1F` (centres unmarked) [Example C40, 2-[1-(azetidin-3-ylmethyl)-4-[4-[2-chloro-4-[[5-(2-chloro-3-fluoro-4-methoxy-phenyl)-1-methyl-imidazole-2-carbonyl]amino]benzoyl]piperazine-1-carbonyl]piperidin-1-ium-1-yl]acetic acid; formate]: 540 nM; for `Cn1c(-c2ccc(OCF)c(F)c2Cl)cnc1C(=O)Nc1ccc(C(=O)N2CCN(C(=O)C3CC[N+](CC(=O)O)(CC4CNC4)CC3)CC2)c(Cl)c1` (centres unmarked) [Example C41, 2-[1-(azetidin-3-ylmethyl)-4-[4-[2-chloro-4-[[5-[2-chloro-3-fluoro-4-(fluoromethoxy)phenyl]-1-methyl-imidazole-2-carbonyl]amino]benzoyl]piperazine-1-carbonyl]piperidin-1-ium-1-yl]acetic acid formate]: 480 nM. As to `Cn1c(-c2ccc(OC(F)F)c(F)c2F)cnc1C(=O)Nc1ccc(C(=O)N2CCN(C(=O)C3CC[N+](C)(CC4CNC4)CC3)CC2)c(F)c1` (centres unmarked) [Example C42, N-[4-[4-[1-(azet-idin-3-ylmethyl)-1-methyl-piper-idin-1-ium-4-carbonyl]piper-azine-1-carbon-yl]-3-fluoro-phenyl]-5-[4-(difluorometh-oxy)-2,3-difluoro-phenyl]-1-methyl-imidazole-2-car-boxamide; 2,2,2-trifluoroacetate; 2,2,2-trifluoro-acetic acid], the IC90 under setting [2] was found to be 100 nM. With `COc1ccc(-c2cnc(C(=O)Nc3ccc(C(=O)N4CCC(NC(=O)[C@@H]5C[C@@H](O)C[N+]5(C)C)CC4)c(Cl)c3)n2C)c(F)c1F` [Example C43, N-[3-chloro-4-[4-[[(2S,4R)-4-hydroxy-1,1-dimethyl-pyrrolidin-1-ium-2-carbonyl]amino]piperidine-1-carbonyl]phenyl]-5-(2,3-difluoro-4-methoxy-phenyl)-1-methyl-imidazole-2-carboxamide;formate], under setting [2], the IC90 is 290 nM.
